Source: ChEMBL document CHEMBL1914428, “Investigating the role of the hydroxyl groups of substrate erythrose 4-phosphate in the reaction catalysed by the first enzyme of the shikimate pathway” (Bioorg Med Chem Lett, 2011)
Active and inactive are the calls of the source. The calls are words filed in the database; no cut-off is given here.

Columns and labels:
Pyrococcus furiosus [1] = assay: Inhibition of Pyrococccus furiosus DAH7P synthase type 1beta
Escherichia coli [2] = assay: Activity of Escherichia coli phenylalanine-sensitive DAH7P synthase type 1alpha by spectrophotometry in the presence of Mn2+
[3] = test system: Mycobacterium tuberculosis; assay: Ratio of Kcat to Km of Mycobacterium tuberculosis DAH7P synthase type 2
Escherichia coli [4] = assay: Ratio of Kcat to Km of Escherichia coli phenylalanine-sensitive DAH7P synthase type 1alpha
Pyrococcus furiosus [5] = assay: Ratio of Kcat to Km of Pyrococccus furiosus DAH7P synthase type 1beta
[6] = test system: Mycobacterium tuberculosis; assay: Activity of Mycobacterium tuberculosis DAH7P synthase type 2 by spectrophotometry in the presence of Mn2+
Pyrococcus furiosus [7] = assay: Activity of Pyrococccus furiosus DAH7P synthase type 1beta by spectrophotometry in the presence of Mn2+

SMILES	inhibition (Pyrococcus furiosus [1])	Km (Escherichia coli [2])	kcat/Km [3]	kcat/Km (Escherichia coli [4])	kcat/Km (Pyrococcus furiosus [5])	Km [6]	kcat [6]	kcat (Escherichia coli [2])	Km (Pyrococcus furiosus [7])	kcat (Pyrococcus furiosus [7])
O=CC(O)CCOP(=O)(O)O (racemic)	Active	2600 µM	–	–	–	–	–	–	–	–
O=C[C@H](O)CCOP(=O)(O)O	–	2700 µM	31000 M⁻¹ s⁻¹	2000 M⁻¹ s⁻¹	11000 M⁻¹ s⁻¹	77 µM	2.4 s⁻¹	4.5 s⁻¹	200 µM	2.1 s⁻¹
O=C[C@H](O)[C@H](O)COP(=O)(O)O	–	39 µM	150000 M⁻¹ s⁻¹	670000 M⁻¹ s⁻¹	160000 M⁻¹ s⁻¹	37 µM	5.4 s⁻¹	26 s⁻¹	9 µM	1.4 s⁻¹
O=CC[C@H](O)COP(=O)(O)O	–	410 µM	110000 M⁻¹ s⁻¹	60000 M⁻¹ s⁻¹	500000 M⁻¹ s⁻¹	46 µM	4.9 s⁻¹	25 s⁻¹	6 µM	3 s⁻¹
